The target of experiment [1] is T1, Tyrosine-protein phosphatase non-receptor type 2 (Homo sapiens, UniProt P17706).
T1 sequence (P17706 whole entry): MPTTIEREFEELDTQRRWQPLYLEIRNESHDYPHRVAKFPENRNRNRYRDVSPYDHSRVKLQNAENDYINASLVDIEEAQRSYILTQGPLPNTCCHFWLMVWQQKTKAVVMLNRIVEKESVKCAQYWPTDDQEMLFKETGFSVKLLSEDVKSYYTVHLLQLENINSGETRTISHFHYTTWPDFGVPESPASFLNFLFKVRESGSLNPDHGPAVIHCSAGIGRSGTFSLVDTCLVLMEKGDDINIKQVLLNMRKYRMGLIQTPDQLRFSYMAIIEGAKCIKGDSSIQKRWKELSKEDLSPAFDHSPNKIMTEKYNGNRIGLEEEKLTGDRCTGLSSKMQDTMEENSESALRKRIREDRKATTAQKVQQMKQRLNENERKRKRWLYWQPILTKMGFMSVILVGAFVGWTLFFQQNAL
The experiment is described as follows: PTPN2 Biochemical Assay. The procedure: Test compounds were dissolved in DMSO, and 10-point serial 3-fold dilution series in DMSO were prepared in Echo Qualified 384-well Polypropylene Microplates (Labcyte, San Jose, CA) (top concentration 50 µM). Assay plates (384-well low volume black plates; Corning #3820, Corning, NY) were prepared by dispensing 50 nL of test compound, and DMSO (for high and low controls) by ECHO acoustic dispenser (Labcyte, San Jose CA). This was followed by addition of 5 μL of 0.2 nM human PTPN2 (1-387) solution (prepared in the assay buffer, 50 mM Tris pH 7.4, 150 mM NaCl, 0.01% Tween20, 0.5 mM dithiothreitol) to all wells except the low control. 5 μl of assay buffer was added into the low control, then the plate was incubated for 30 minutes at room temperature. Subsequently, 5 μl of 100 µM DiFMUP (6,8-difluoro-4-methylumbelliferyl phosphate) solution (prepared in assay buffer from 10 mM stock in DMSO) was added to the assay plate and incubated for 1 hour at room temperature. For detection, assay plates were read on SpectraMax Microplate Reader (Molecular Devices), with Excitation wavelength=360 nm and Emission wavelength=460 nm.

For experiment [2], the target named is T2, Tyrosine-protein phosphatase non-receptor type 1 (Homo sapiens, UniProt P18031).
T2 sequence (P18031 whole entry): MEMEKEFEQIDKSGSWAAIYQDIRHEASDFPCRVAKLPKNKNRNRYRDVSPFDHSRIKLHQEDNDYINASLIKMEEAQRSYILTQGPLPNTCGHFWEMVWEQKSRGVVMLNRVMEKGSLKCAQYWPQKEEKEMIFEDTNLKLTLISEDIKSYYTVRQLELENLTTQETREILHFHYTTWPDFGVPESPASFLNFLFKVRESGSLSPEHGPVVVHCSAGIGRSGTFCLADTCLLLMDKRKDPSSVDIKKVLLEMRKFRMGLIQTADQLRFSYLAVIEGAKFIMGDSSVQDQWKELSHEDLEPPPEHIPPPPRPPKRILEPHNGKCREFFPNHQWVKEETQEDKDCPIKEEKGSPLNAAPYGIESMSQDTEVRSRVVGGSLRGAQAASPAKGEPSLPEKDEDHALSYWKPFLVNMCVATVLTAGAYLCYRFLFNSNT
The experiment is described as follows: PTPN1 Biochemical Assay. The procedure:
Test compounds were dissolved in DMSO, and 10-point serial 3-fold dilution series in DMSO were prepared in Echo Qualified 384-well Polypropylene Microplates (Labcyte, San Jose, CA) (top concentration 50 µM). […] 5 μl of assay buffer was added into the low control. The plate was incubated for 30 minutes at room temperature. Subsequently, 5 μl of 100 µM DiFMUP (6,8-difluoro-4-methylumbelliferyl phosphate) solution (prepared in assay buffer from 10 mM stock in DMSO) was added to the assay plate and incubated for 1 hour at room temperature. For detection, assay plates were read on SpectraMax Microplate Reader (Molecular Devices), with Excitation wavelength=360 nm and Emission wavelength=460 nm.

Each structure is given as a SMILES string.

Regarding `Cc1ccc(COc2cc(C(N)=O)cc3c(Br)c(C(F)(F)P(=O)(O)O)sc23)cc1C` [US20250059220, Compound 358], the 50% inhibitory concentration (IC50) stood at 54.8 nM in experiment [1] and 106 nM in experiment [2].
The matching figures for `CS(=O)(=O)CCCOc1cc(C(N)=O)cc2c(C3CC3)c(C(F)(F)P(=O)(O)O)sc12` [US20250059220, Compound 458]: 68.1 nM and 78.6 nM.
